Data reported in EP4125905B1, “REGIMEN FOR TREATING A NEISSERIA GONORRHOEAE INFECTION WITH GEPOTIDACIN” (GlaxoSmithKline Intellectual Property Development Limited, priority 2020, dated 2021).
≈ marks a conversion by molar mass, not a printed value. Like-named read-outs stand apart in the source and are kept apart here.

What was measured:
NG clinical isolate [1] = experiment: microbe, parasite or virus in culture; type: cell-based; settings: Neisseria gonorrhoeae
NG isolate = type: cell-based, Neisseria gonorrhoeae
Experimental: The results were discussed in VanScoy BD et al., A Hollow-Fiber Infection Model to Evaluate the Prevention of On- Therapy Resistance of Neisseria gonorrhoeae to Gepotidacin.
10 mL of an initial bacterial density of 10^6 colony forming units (CFU)/mL was inoculated into the hollow-fiber cartridge (Fibercell Systems, Frederick, MD), utilizing modified FB medium.
Samples were collected for observation of simulated pharmacokinetic profiles and enumeration of bacterial burden over the study duration. All bacterial samples were plated on drug-free and agar supplemented with 2 x the agar MIC value of each respective challenge compound.

[2] = Plasma and pulmonary (ELF, AM) pharmacokinetics after intravenous gepotidacin in healthy adult subjects; type: in vivo, human
Experimental: (§1) Gepotidacin exposures were assessed in plasma and other matrices, such as urine, saliva, epithelial lining fluid (ELF), Alveolar Macrophages (AM), cervix, rectum and pharynx, as follows: • 1. Plasma, Epithelial Lining Fluid (ELF) and Alveolar Macrophage (AM) samples: A study to evaluate plasma and pulmonary pharmacokinetics (PK) following intravenous administration of gepotidacin in healthy adult subjects was conducted (see M Hossain, EF Dumont. Population Pharmacokinetic Modeling of Plasma and Epithelial Lining Fluid Data for a Novel Antimicrobial Compound. 54th Annual Interscience Conference on Antimicrobial Agents and Chemotherapy Meeting, 5-9 September 2014, Washington, D.C., USA). • 2. Saliva, Urine and plasma samples: • a. A single-dose study to assess the PK of oral gepotidacin in male and female adult participants with varying degrees of hepatic impairment and in matched control participants with normal hepatic function (J. Hands et al. Pharmacokinetics of Gepotidacin in Subjects with Hepatic Impairment. ID Week, 2-6 October 2019, Washington DC, USA) • b. A single-dose study to assess the PK of gepotidacin in adult subjects with varying degrees of renal impairment and in matched control subjects with normal renal function • 3. Urine, plasma, cervix, rectum and pharynx swabs: In a Phase 2a, single-center, single-arm, open-label study in the Unites States from July 2018 to January 2019 (see Overcash et al., Open Forum Infectious Diseases, Volume 6, Issue Supplement 2, October 2019, Page S539, https://doi.org/10.1093/ofid/ofz360.1343), a total of 22 female participants with uncomplicated Urinary Tract Infection (uUTI) were enrolled and evaluated for pharmacokinetics (PK), safety, and clinical efficacy. Participants were confined to the clinic from baseline (Days -1 to 1 predose) through on-therapy (Days 1 to 5) and returned as outpatients for test-of-cure (TOC; Days 10 to 13) and follow-up (Day 28t3). Participants received oral gepotidacin 1,500 mg twice daily (BID) for 5 days. […] The majority of participants were white, age ranged from 19 to 60 years, and body mass index ranged from 20.9 to 37.9 kg/m^2. The number of past uUTI episodes ranged from 0 to 10 over the past 12 months across participants; the majority of participants reported ≤2 episodes. The mean total clinical symptom score at baseline was 7.9 (range: 4 to 12). All participants reported frequency and urgency, and all but 1 participant (5%) reported dysuria. Gepotidacin exposures in urine, cervix, rectum and pharynx were assessed.
Plasma, Epithelial Lining Fluid (ELF) and Alveolar Macrophage (AM) PK were assessed following a single IV infusion of 1000 mg gepotidacin over 2 hours. […] Concentrations in AM and ELF changed in a similar manner as in plasma over the 12-hour sampling period.

[3] = Single-dose saliva, urine and plasma PK of oral gepotidacin in hepatic impairment and matched controls; type: in vivo, human; settings: for urinary exposure (AUC[0-48]) relative to matched healthy controls: 1500 mg orally
Experimental: Gepotidacin exposures were assessed in plasma and other matrices, such as urine, saliva, epithelial lining fluid (ELF), Alveolar Macrophages (AM), cervix, rectum and pharynx, as follows: • 1. Plasma, Epithelial Lining Fluid (ELF) and Alveolar Macrophage (AM) samples: A study to evaluate plasma and pulmonary pharmacokinetics (PK) following intravenous administration of gepotidacin in healthy adult subjects was conducted (see M Hossain, EF Dumont. Population Pharmacokinetic Modeling of Plasma and Epithelial Lining Fluid Data for a Novel Antimicrobial Compound. 54th Annual Interscience Conference on Antimicrobial Agents and Chemotherapy Meeting, 5-9 September 2014, Washington, D.C., USA). • 2. Saliva, Urine and plasma samples: • a. A single-dose study to assess the PK of oral gepotidacin in male and female adult participants with varying degrees of hepatic impairment and in matched control participants with normal hepatic function (J. Hands et al. Pharmacokinetics of Gepotidacin in Subjects with Hepatic Impairment. ID Week, 2-6 October 2019, Washington DC, USA) • b. A single-dose study to assess the PK of gepotidacin in adult subjects with varying degrees of renal impairment and in matched control subjects with normal renal function • 3. Urine, plasma, cervix, rectum and pharynx swabs: In a Phase 2a, single-center, single-arm, open-label study in the Unites States from July 2018 to January 2019 (see Overcash et al., Open Forum Infectious Diseases, Volume 6, Issue Supplement 2, October 2019, Page S539, https://doi.org/10.1093/ofid/ofz360.1343), a total of 22 female participants with uncomplicated Urinary Tract Infection (uUTI) were enrolled and evaluated for pharmacokinetics (PK), safety, and clinical efficacy. […] Gepotidacin exposures in urine, cervix, rectum and pharynx were assessed.
(§2) Saliva, Urine and Plasma concentrations were determined after administration of gepotidacin 750 mg IV (healthy and renally impaired subjects) and 1500 mg orally (healthy and hepatically impaired subjects, as well as uUTI patients). […]

[4] = Single-dose saliva, urine and plasma PK of gepotidacin in renal impairment and matched controls; type: in vivo, human
Experimental: as §1, §2

[5] = Phase 2a study in female participants with uUTI: urine, plasma, cervical, rectal and pharyngeal swab PK and safety; type: in vivo, human
Experimental: as §1
Plasma, cervix, rectum and pharynx swabs were collected after administration of gepotidacin 1500 mg BID to uUTI patients. […] TABLE 1 Summary of gepotidacin cervical, rectal, pharyngeal, and free plasma concentration time data (µg/ml) (pharmacokinetic population)

NG clinical isolate [6] = experiment: MIC determination in fastidious broth (FB) medium modified to lack agarose; type: cell-based; settings: Neisseria gonorrhoeae, read-out: gepotidacin broth MIC
Experimental: The NG clinical isolate evaluated was known to be ciprofloxacin-resistant (minimum inhibitory concentration [MIC]= 2 mg/L), susceptible to ceftriaxone (MIC = 0.004 mg/L), and with a gepotidacin agar/broth MIC of 1/0.5 mg/L. The isolate was collected during the Phase 2 clinical study mentioned above, and contained the mutation, ParC D86N.
In order to evaluate the MIC of each challenge compound under the liquid conditions utilized in the HFIM, MIC values were determined using fastidious broth (FB) medium modified to lack agarose.

[7] = Safety and pharmacokinetics in healthy adults and adolescents; type: in vivo, human
Experimental: Healthy adults and adolescents within the age ranges of 19-64 and 12-17 years old, respectively, participated in the study.
In Part 1 of the study, gepotidacin was administered with food to healthy adults (≥ 18 years) in period 1 (1500 mg oral single dose), followed by period 2 (3000 mg x 2 oral doses Q12h) and period 3 (3000 mg x 2 oral doses Q6h).
In Part 2 of the study, gepotidacin was administered with food to adolescents (12 to < 18 years) at the same dose regimens as period 1 (1500 mg oral single dose) and period 3 (3000 mg x 2 oral doses Q6h).

urogenital NG = settings: cited from earlier work
urogenital NG isolates = settings: cited from earlier work
[8] = single IV infusion of 1000 mg over 2 hours, AM versus ELF
[9] = 1500 mg BID, Day 4, 2 hours postdose
[10] = Period 1, 1500 mg oral single dose

Structure (SMILES): CO/N=C(\C(=O)N[C@@H]1C(=O)N2C(C(=O)O)=C(CSc3nc(=O)c(=O)[nH]n3C)CS[C@H]12)c1csc(N)n1 [ceftriaxone, reference compound]
- MIC (NG clinical isolate [1]; read-out: minimum inhibitory concentration [MIC]): 0.004 µg/mL (≈ 0.00721 µM)
- performance of controls in the hollow fibre infection model (NG isolate; isolate resistant to ciprofloxacin and susceptible to ceftriaxone, simulated 0.5 g oral ciprofloxacin, 0.25 g IM ceftriaxone): performed as expected

Structure (SMILES): O=c1ccc2ncc(=O)n3c2n1C[C@H]3CN1CCC(NCc2cc3c(cn2)OCCC3)CC1 [gepotidacin, (2R)-2-({4-[(3,4-Dihydro-2H-pyrano[2,3-c]pyridin-6-ylmethyl)amino]-1-piperidinyl}methyl)-1,2-dihydro-3H,8H-2a,5,8a-triazaacenaphthylene-3,8-dione]
- Kp ([2]; human, alveolar macrophages / free plasma, single IV infusion of 1000 mg over 2 hours, read-out: AUC(0-12) ratio of AM to free plasma): 178
- Kp ([2]; human, epithelial lining fluid / free plasma, single IV infusion of 1000 mg over 2 hours, read-out: AUC(0-12) ratio of ELF to free plasma): 1.84
- fraction unbound ([2]; human, plasma, read-out: gepotidacin free fraction): 0.67
- AM exposure AUC(0-12), higher than in ELF [2, 8]: ~97 fold
- AM exposure Cmax, higher than in ELF [2, 8]: approximately 120 fold
- Kp ([3]; human, saliva / unbound plasma, stated across the renal and hepatic impairment studies, read-out: ratio of saliva AUC to unbound plasma AUC (RAUC)): ≥ 0.75
- urinary exposure (AUC[0-48]) relative to matched healthy controls ([3]; moderate hepatic impairment): approximately 3.2 fold
- urinary exposure (AUC[0-48]) relative to matched healthy controls ([3]; severe hepatic impairment): ~3.9 fold
- gepotidacin dose excreted in the urine ([4]; ESRD subjects on hemodialysis): Less than 2%
- gepotidacin dose removed in the urine (fe%) ([4]; End-Stage Renal Disease (ESRD) subjects not on hemodialysis): 7.9%
- gepotidacin dose removed in the urine (fe%) ([4]; moderate renal impairment subjects): 22.1%
- gepotidacin dose removed in the urine (fe%) ([4]; normal renal function subjects): 37.4%
- Cervical concentration, Maximum [5, 9]: 4.25 µg/mL
- Cervical concentration, Mean [5, 9]: 1.03 µg/mL
- Cervical concentration, Minimum [5, 9]: 0.0190 µg/mL
- Free plasma concentration, Maximum [5, 9]: 7500 ng/mL
- Free plasma concentration, Mean [5, 9]: 3940 ng/mL
- Free plasma concentration, Minimum [5, 9]: 938 ng/mL
- Pharyngeal concentration, Maximum [5, 9]: 0.527 µg/mL
- Pharyngeal concentration, Mean [5, 9]: 0.140 µg/mL
- Pharyngeal concentration, Minimum [5, 9]: 0.0118 µg/mL
- Rectal concentration, Maximum [5, 9]: 90.90 µg/mL
- Rectal concentration, Mean [5, 9]: 12.3 µg/mL
- Rectal concentration, Minimum [5, 9]: 0.0989 µg/mL
- Cervical concentration, Maximum ([5]; 1500 mg BID, Day 4, Predose): 5.94 µg/mL
- Cervical concentration, Mean ([5]; 1500 mg BID, Day 4, Predose): 1.30 µg/mL
- Cervical concentration, Minimum ([5]; 1500 mg BID, Day 4, Predose): 0.0601 µg/mL
- Free plasma concentration, Maximum ([5]; 1500 mg BID, Day 4, Predose): 1330 ng/mL
- Free plasma concentration, Mean ([5]; 1500 mg BID, Day 4, Predose): 618 ng/mL
- Free plasma concentration, Minimum ([5]; 1500 mg BID, Day 4, Predose): 308 ng/mL
- Pharyngeal concentration, Maximum ([5]; 1500 mg BID, Day 4, Predose): 0.165 µg/mL
- Pharyngeal concentration, Mean ([5]; 1500 mg BID, Day 4, Predose): 0.0330 µg/mL
- Pharyngeal concentration, Minimum ([5]; 1500 mg BID, Day 4, Predose): 0.00275 µg/mL
- Rectal concentration, Maximum ([5]; 1500 mg BID, Day 4, Predose): 36.30 µg/mL
- Rectal concentration, Mean ([5]; 1500 mg BID, Day 4, Predose): 6.04 µg/mL
- Rectal concentration, Minimum ([5]; 1500 mg BID, Day 4, Predose): 0.0678 µg/mL
- discontinuations due to adverse events (AEs) ([5]; oral 1,500 mg BID for 5 days, uUTI participants): no discontinuations due to adverse events
- urine Ctau exposures ([5]; uUTI patients, 1500 mg BID, from Day 3 onwards): 322 to 352 µg/mL
- minimum gepotidacin urine concentrations ([5]; uUTI patients, remained above MIC over the 12-hour dosing interval): > 4 µg/mL
- MIC (NG clinical isolate [1]; read-out: gepotidacin MIC): 1 µg/mL (≈ 2.23 µM)
- MIC (NG clinical isolate [1]; read-out: gepotidacin agar MIC): 1 µg/mL (≈ 2.23 µM)
- MIC (NG clinical isolate [6]): 0.5 µg/mL (≈ 1.11 µM)
- doses preventing amplification of resistance within the system (NG isolate; gepotidacin-resistant subpopulation on Day 7): ≥ 4.5 g
- total daily doses that prevented resistance amplification (NG isolate; including 2 doses of 3g administered 8 or 12 hours apart): ≥ 4500 mg
- doses sterilizing the system (NG isolate; over the seven-day period, simulated single oral doses 0.75 to 12 g): ≥ 4.5 g
- tolerability ([7]; 1500 mg oral single dose, adults and adolescents, few mild GI AEs): generally well tolerated
- maximum concentration (Cmax), adolescents compared to adults [7, 10]: similar
- median area under the curve (AUC), adolescents compared to adults [7, 10]: slightly higher
- AUC following the second dose, adolescents versus adults ([7]; Period 3, Q6h regimen): higher
- Cmax following the second dose, adolescents versus adults ([7]; Period 3, Q6h regimen): similar
- subjects above the value of potential clinical concern, observed ([7]; adolescents Q6h, 3000 mg x 2 oral doses): 58%
- subjects above the value of potential clinical concern, observed ([7]; adults Q6h, 3000 mg x 2 oral doses): 46%
- subjects above the value of potential clinical concern, observed ([7]; adults Q12h, 3000 mg x 2 oral doses): 15%
- AUC0-t exposures following the first dose, Q12 versus Q6h ([7]; adults, 3000 mg dose level): similar
- accumulation ratios, Q6h as compared to Q12h ([7]; adults, 3000 mg x 2 oral doses): Higher
- safety issues related to QT or AchE-I ([7]; in vivo): No observed safety issues
- participants who failed therapy at the urogenital body site (urogenital NG; Phase II study, total): 3
- microbiological successes (bacterial eradication) (urogenital NG; of the 8 participants with D86N-positive baseline urogenital NG isolates): 5
- efficacy (bacterial eradication) against urogenital infection caused by NG (urogenital NG; single oral dose 1.5g (1500 mg)): ≥ 95%
- efficacy (bacterial eradication) against urogenital infection caused by NG (urogenital NG; single oral dose 3g (3000 mg)): ≥ 95%
- baseline gepotidacin MIC (urogenital NG isolates; 2 microbiological successes with D86N-positive baseline organisms): 1 µg/mL
- TOC gepotidacin MICs (urogenital NG isolates; 2 posttreatment isolates that had become resistant): ≥ 32 µg/mL
